Laboratory results published in patent publication US12310940B2, “Cell-permeable succinate compounds” (ABLIVA AB, priority 2014, dated 2025).

Experiments:
[1] = tested on: intact PBMCs; experiment: Lactate release of intact PBMCs exposed to metformin; format: cell-based, human; conditions: 10 mM metformin, data not shown
[2] = tested on: intact human platelets
Procedure: Real-time respirometric measurements were performed using high-resolution oxygraphs (Oxygraph-2k, Oroboros Instruments, Innsbruck, Austria). The experimental conditions during the measurements were the following: 37° C., 2 mL active chamber volume and 750 rpm stirrer speed. […] For data recording, DatLab software version 4 and 5 were used (Oroboros Instruments, Innsbruck, Austria). Settings, daily calibration and instrumental background corrections were conducted according to the manufacturer's instructions. […] All measurements were performed at a platelet concentration of 200×10^6 cells per mL or a PBMC concentration of 5×10^6 cells per mL.
Venous blood from 18 healthy adults (11 males and 7 females) was drawn in K2EDTA tubes (BD Vacutainer® Brand Tube with dipotassium EDTA, BD, Plymouth, UK) according to clinical standard procedure after written informed consent was acquired. For platelet isolation the whole blood was centrifuged (Multifuge 1 S—R Heraeus, Thermo Fisher Scientifics, Waltham, USA) at 500 g at room temperature (RT) for 10 min. Platelet-rich plasma was collected to 15 mL falcon tubes and centrifuged at 4600 g at RT for 8 min. The resulting pellet was resuspended in 1-2 mL of the donor's own plasma. […] The blood remaining after isolation of platelets was washed with an equal volume of physiological saline and layered over 3 mL of Lymphoprep™. After centrifugation at 800 g at RT (room temperature) for 30 min the PBMC layer was collected and washed with physiological saline. Following a centrifugation at 250 g at RT for 10 min the pellet of PBMCs was resuspended in two parts of physiological saline and one part of the donor's own plasma. Cell count for both PBMCs and platelets were performed using an automated hemocytometer (Swelab Alfa, Boule Medical AB, Stockholm, Sweden).
Routine respiration was followed for 60 min at 37° C. before the ATP-synthase inhibitor oligomycin (1 μg mL^−1) was added to assess LEAK respiration. Maximal uncoupled respiratory electron transport system capacity supported by endogenous substrates (ETS) was reached by titration of FCCP.

[3] = tested on: permeabilized human PBMCs; experiment: cells; conditions: PBMC, read-out: IC50 for inhibition of OXPHOSCI
Procedure: Real-time respirometric measurements were performed using high-resolution oxygraphs (Oxygraph-2k, Oroboros Instruments, Innsbruck, Austria). The experimental conditions during the measurements were the following: 37° C., 2 mL active chamber volume and 750 rpm stirrer speed. […] For data recording, DatLab software version 4 and 5 were used (Oroboros Instruments, Innsbruck, Austria). Settings, daily calibration and instrumental background corrections were conducted according to the manufacturer's instructions. […] Standard non-linear curve fitting was applied to calculate half maximal inhibitory concentration (IC50) values. […] Maximal uncoupled respiratory electron transport system capacity supported by convergent input through complex I and […] ) was evaluated by subsequent titration with the protonophore carbonyl-cyanide p-(trifluoromethoxy) phenylhydrazone (FCCP). […] The complex III inhibitor antimycin (1 μg mL^-1) was then given to reveal residual oxygen consumption (ROX). […] Complex IV activity was calculated by subtracting the sodium azide value from the TMPD value. With exception of complex IV activity, all respiratory states were measured at steady-state and corrected for ROX. Complex IV activity was measured after ROX determination and not at steady-state.

[4] = Al-Abri et al., 2013; cited from earlier work

CN(C)C(=N)N=C(N)N [metformin]
lactate release of intact PBMCs [1]: increased lactate release | LEAK respiration in intact cells ([2]; data not shown): not significantly changed | toxic concentration seen in the present study ([2]; human blood cells): 1 mM | reversibility of complex I inhibition upon removal of the drug ([2]; washing and permeabilizing the cells): did not seem to be reversible | IC50 [3]: 450 µM | serum level in a case report of involuntary intoxication, prior to hemodialysis [4]: over 2 mM
